Experimental findings from patent US11649222B2, “Compounds” (UNIVERSITETET I OSLO, priority 2016, dated 2023) are described below.

The test system of one test is E. cloacae (VIM). The experiment in a line: Microbroth dilution MIC of meropenem ± 25 mg/L inhibitor. The conditions noted are these: Enterobacter cloacae, read-out: MIC meropenem alone. It counts as cell-based. As for the experimental part:
(§1) • Plate bacterial strain(s) on appropriate media: • Gram-negative bacteria with ESBLs or carbapenemases: green agar plates with 100 mg/L ampicillin • Gram-negative bacteria without β-lactamases: green agar plates • Gram-positive bacteria (Staphylococci and Enterococci): blood agar plates • Incubate o.n. at 37° C. Day 2: Prepare the Bacterial Inoculum: • Prepare a 0.5 McFarland suspension of bacteria in 0.85% NaCl. (Should be used within 15 min of preparation). • Dilute the 0.5 McFarland suspension 1:100 into MH broth. Check the inoculum by diluting the prepared bacterial suspension 1:100 (10 μl bacterial suspension+990 μl 0.85% NaCl). Plate 10 μl of the dilution on MH agar plates (×2). Incubate o.n. at 37° C., count the colonies and calculate the final CFU/ml inoculum in the plate by multiplying the average number of colonies with 10000 and divide by 2. The final inoculum should be between 3-7×10^5 CFU/ml. • Add 50 μl of the prepared bacterial suspension to each well in the microtiter plate except negative growth control. Preparation of Compounds/Antibiotics • Calculate the desired concentration-range and volume of the compounds/antibiotics in the assay. […] Dilute the stock solution in MH broth. Make subsequent 2-fold dilutions in MH broth of the desired concentrations if a concentration range is to be tested (remember the extra dilution factor in the assay plate). Always include extra volume for pipetting. Take into consideration stock solutions that are made in buffers that have an effect on bacterial growth (e.g. DMSO).

A further test concerns K. pneumoniae (NDM-1). The test is described as above. It is filed as cell-based. As for the experimental part:
as §1

The next test has as its system P. mirabilis (NDM-1). The test is described as above. It counts as cell-based. The conditions noted are these: Proteus mirabilis, read-out: MIC meropenem alone. As for the experimental part:
as §1

A further test has as its system C. freundii (NDM). The test is described as above. It is filed as cell-based. The settings on record: Citrobacter freundii, read-out: MIC meropenem alone. As for the experimental part: as §1
A further test relates to E. coli (VIM-1). The test is described as above. It counts as cell-based. The conditions noted are these: Escherichia coli, read-out: MIC meropenem alone. The protocol: as §1
In a further test the test system is P. stuartii (NDM). Described as above. It counts as cell-based. The settings on record: Providencia stuartii, read-out: MIC meropenem alone. The protocol:
as §1

The subject of another test is K. pneumoniae (VIM). The test is described as above. It is filed as cell-based. The conditions noted are these: Klebsiella pneumoniae, read-out: MIC meropenem alone. The protocol:
as §1

In a further test the test system is P. stuartii (NDM-1). The description is as above. It counts as cell-based. The conditions noted are these: Providencia stuartii, read-out: MIC meropenem alone. As for the experimental part: as §1
The subject of test [1] is M. morganii (OXA48+ NDM-1). Described as above. It is filed as cell-based. The settings on record: Morganella morganii, read-out: MIC meropenem alone. As for the experimental part: as §1
The next test relates to C. freundii (NDM-1). The test is described as above. It counts as cell-based. The conditions noted are these: Citrobacter freundii, read-out: MIC meropenem alone. As for the experimental part:
as §1

For the next test, the system named is K. pneumoniae (NDM-7). The test is described as above. It counts as cell-based. The conditions noted are these: Klebsiella pneumoniae, read-out: MIC meropenem alone. As for the experimental part:
as §1

The subject of test [2] is Klebsiella pneumoniae strain 50752501 harbouring NDM-1. Nature of the test: In vivo peritonitis infection study in neutropenic mice. On the set-up: Score at sampling: scale not given here. As for the experimental part: The purpose of this study was to investigate the synergy between a typical example of the present invention and a state of art carbapenem in a clinically relevant multiresistant Gram-negative bacterial strain harboring a metallo-β-lactamase in the treatment of live mice infected with the bacterial strain.
The mice were rendered neutropenic by injecting 0.5 ml cyclophosphamide solution intraperitoneally 4 days (approximately 200 mg/kg) and 1 day (approximately 100 mg/kg) prior to inoculation.
Fresh overnight colonies from a 5% Horse Blood Agar plate were suspended and diluted in sterile saline to approximately and 10^7 CFU/ml. Mice were inoculated intraperitoneally with 0.5 ml of the suspension. Approximately ½ hr prior to inoculation, mice were treated orally with 45 μl neurophen (20 mg ibuprofen/ml corresponding to approximately 30 mg/kg) as a pain relief.
Mice were treated subcutaneously in the neck region with.
Colony counts were determined from blood and peritoneal fluid at 1 and 5 hrs post inoculation. […] The mice were sacrificed immediately after blood sampling and a total of 2 ml sterile saline was injected i.p. and the abdomen gently massaged before it was opened and fluid sampled with a pipette. Each sample was then 10 fold serial diluted in saline and 20-μl spots, ranging from undiluted to a 10^6 dilution, were applied on agar plates in duplicates. […] All agar plates were incubated 18-22 hrs at 35° C. in ambient air.

The subject of test [3] is Klebsiella pneumoniae harboring NDM-1. The experiment in a line: Time-kill study with meropenem. It is filed as cell-based. The conditions noted are these: 4 mg/L meropenem alone. As for the experimental part: Mueller-Hinton broth (MHB) was warmed from fridge temperature cold. […] A sample of Example 26 was dissolved in DMSO.
The 96-well plates were prepared using a multi-channel pipette, adding […] PBS to columns 2-9, or the required number of dilutions needed in the experiment. Each Inoculum was prepared by picking a single colony from the fresh plate that was disperged into 1 mL MHB, the loop was agitated to ensure all the colony comes off the loop. The tube was Vortex mixed, and a 100 μL aliquot was taken from the tube into 9.9 mL of MHB into the media bottle. […] The procedure was repeated for as many samples needed in the study. Aliquots of 5 mL inoculum were transferred to as many media bottles as needed, e.g. 4 mg/L MEM, 4 mg/L MEM+50 μM test substance, 4 mg/L MEM+100 μM test substance. Then […] aliquots were taken from each culture and added to Column 1 on the 96 well plate, e.g. culture 1: 50 μl into A1, […] into B1 etc. for time point 0 h. Then […] MEM was added into each bottle, followed by the required amount of test substance. The bottles were mixed gently to avoid formation of bubbles, and incubated in a secondary container at 37° C. at 180 rpm. Finally, serial dilutions were performed using multi-channel pipette taking 30 μL for column 1, adding to column 2, mixing well, repeating from column 2 to 3 with clean pipette tips.

[4] abbreviates: vehicle + meropenem 33 mg/kg, sampling T = 5, individual mice.

Molecules are shown by their SMILES. Values joined by “and” are separate entries in the source; they are usually repeats but may differ in a detail not shown here. Equal values may be shown once.

By MIC is commonly meant the lowest concentration found to suppress growth. Regarding `C[C@@H](O)[C@H]1C(=O)N2C(C(=O)O)=C(S[C@@H]3CN[C@H](C(=O)N(C)C)C3)[C@H](C)[C@H]12` [meropenem, reference compound], the MIC in the test on E. cloacae (VIM) came to 8 µg/mL; in the test on K. pneumoniae (NDM-1) (Klebsiella pneumoniae, read-out: MIC meropenem alone, K. pneumoniae NDM-1 (several strains)), 64 µg/mL; with P. mirabilis (NDM-1), 32 µg/mL; in the test on C. freundii (NDM), 16 µg/mL; in the test on E. coli (VIM-1), 0.5 µg/mL; in the test on P. stuartii (NDM), 64 µg/mL. The MIC is 4 µg/mL in the test with K. pneumoniae (VIM); 8 µg/mL in the test with P. stuartii (NDM-1); 8 µg/mL in test [1]; 4 µg/mL in the test on C. freundii (NDM-1); 64 µg/mL in the test on K. pneumoniae (NDM-7). Besides, the MIC meropenem alone in the test on K. pneumoniae (NDM-1) (K. pneumoniae NDM-1 (several strains)) amounted to 32 µg/mL. In [2] (meropenem alone), the “lower CFU levels compared to vehicle treatment, blood” value amounted to 2.5 log10. In addition, the “lower CFU levels compared to vehicle treatment, peritoneal fluid” value in test [2] (meropenem alone) amounted to 2.2 log10. For the same molecule, the “Pf log CFU/ml mean” value in [2] (peritoneal fluid, vehicle + meropenem 33 mg/kg, sampling T = 5) worked out at 5.22 log CFU/ml. In test [2] (peritoneal fluid, vehicle + meropenem 33 mg/kg, sampling T = 5, individual mice), the “Pf log CFU/ml” value is 5.72 log CFU/ml and 4.60 log CFU/ml and 5.30 log CFU/ml and 5.24 log CFU/ml. For the same molecule, the “Blood log CFU/ml mean” value in test [2] (vehicle + meropenem 33 mg/kg, sampling T = 5) stood at 2.98 log CFU/ml. In addition, the “Blood log CFU/ml” value in test [2] (setting [4]) is 3.51 log CFU/ml (2×) and 2.80 log CFU/ml and 2.10 log CFU/ml. The Score at sampling in test [2] (setting [4]) was found to be 2. For the same molecule, in [3], the “time after which CFU starts to increase” value is recorded as “about 5 hours”.
